Reference: US20230094076A1, “COMBINATION THERAPY” (GlaxoSmithKline Intellectual Property Development Limited, priority 2016, published 2023)
Like-named read-outs stand apart in the source and are kept apart here.

What was measured:
[1] = system: arginine methylation (ADMA, MMA, SDMA) in Toledo cells; experiment: Western analysis of arginine methylation, time course; assay type: cell-based, human; conditions: 0.4 μM
Procedure: (B) Representative western blots of arginine methylation marks. Regions quantified are denoted by black bars on the right of the gel.
As predicted, ADMA methylation decreased while MMA increased upon compound exposure (FIG. 12). […] Given the detection of numerous substrates with varying kinetics, and variability of ADMA levels among DMSO-treated samples, both the full lane and a prominent 45 kDa band were characterized to assess ADMA. Increases in MMA were apparent by 24 hours and near maximal by 48 hours while decreases in the 45 kDa ADMA band required 72-96 hours to achieve maximal effect. Increases in SDMA were apparent after 48 hours of compound exposure and continued to increase through 120 hours, consistent with the potential switch from conversion of MMA to ADMA by Type I PRMTs to SDMA by Type II PRMTs (FIG. 12).

[2] = biological target: PRMT4 (Homo sapiens, UniProt Q86X55); experiment: PRMT family radioactive assay; assay type: biochemical
Chain of PRMT4 (Q86X55 whole entry): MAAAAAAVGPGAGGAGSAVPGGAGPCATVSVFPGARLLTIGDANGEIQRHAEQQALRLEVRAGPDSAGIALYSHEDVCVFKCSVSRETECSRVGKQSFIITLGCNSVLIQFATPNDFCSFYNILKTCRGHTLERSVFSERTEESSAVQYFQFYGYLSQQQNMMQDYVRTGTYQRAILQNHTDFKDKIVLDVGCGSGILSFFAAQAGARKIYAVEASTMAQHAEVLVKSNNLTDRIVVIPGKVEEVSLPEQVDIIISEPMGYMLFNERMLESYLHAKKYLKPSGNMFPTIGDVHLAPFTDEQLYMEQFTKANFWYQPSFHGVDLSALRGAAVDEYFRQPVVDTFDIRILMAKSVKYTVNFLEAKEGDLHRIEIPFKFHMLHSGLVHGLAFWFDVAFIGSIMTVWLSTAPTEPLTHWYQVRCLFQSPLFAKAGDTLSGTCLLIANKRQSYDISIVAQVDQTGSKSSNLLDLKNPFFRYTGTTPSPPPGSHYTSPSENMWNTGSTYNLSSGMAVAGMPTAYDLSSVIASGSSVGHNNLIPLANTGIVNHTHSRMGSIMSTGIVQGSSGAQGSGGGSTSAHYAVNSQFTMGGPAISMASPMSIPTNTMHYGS

[3] = biological target: PRMT3 (Homo sapiens, UniProt O60678); experiment: PRMT family radioactive assay; assay type: biochemical
Chain of PRMT3 (O60678 whole entry): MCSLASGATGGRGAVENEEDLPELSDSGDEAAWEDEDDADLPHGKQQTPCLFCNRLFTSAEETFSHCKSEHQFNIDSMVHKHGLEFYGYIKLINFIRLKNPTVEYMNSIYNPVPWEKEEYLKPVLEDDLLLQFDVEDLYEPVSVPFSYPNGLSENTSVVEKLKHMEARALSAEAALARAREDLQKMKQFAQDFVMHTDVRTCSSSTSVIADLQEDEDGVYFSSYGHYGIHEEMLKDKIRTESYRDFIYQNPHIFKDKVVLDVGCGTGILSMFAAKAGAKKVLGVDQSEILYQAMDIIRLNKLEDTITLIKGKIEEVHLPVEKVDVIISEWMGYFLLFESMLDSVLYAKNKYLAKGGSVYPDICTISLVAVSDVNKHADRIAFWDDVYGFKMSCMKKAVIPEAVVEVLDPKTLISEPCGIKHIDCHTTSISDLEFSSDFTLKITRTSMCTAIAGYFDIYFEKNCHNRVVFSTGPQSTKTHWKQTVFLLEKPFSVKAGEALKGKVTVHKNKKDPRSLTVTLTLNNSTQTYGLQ

[4] = system: Toledo (human DLBCL) xenograft; conditions: for Body weight Difference (vs. vehicle) / Regression: Toledo (DLBCL), Day 28
[5] = system: human renal cell carcinoma xenografts (ACHN); conditions: for Body weight Difference (vs. vehicle) / Regression: ACHN (ccRCC)
[6] = biological target: PRMT6 (Homo sapiens, UniProt Q96LA8); experiment: PRMT family radioactive assay; assay type: biochemical
Chain of PRMT6 (Q96LA8 whole entry): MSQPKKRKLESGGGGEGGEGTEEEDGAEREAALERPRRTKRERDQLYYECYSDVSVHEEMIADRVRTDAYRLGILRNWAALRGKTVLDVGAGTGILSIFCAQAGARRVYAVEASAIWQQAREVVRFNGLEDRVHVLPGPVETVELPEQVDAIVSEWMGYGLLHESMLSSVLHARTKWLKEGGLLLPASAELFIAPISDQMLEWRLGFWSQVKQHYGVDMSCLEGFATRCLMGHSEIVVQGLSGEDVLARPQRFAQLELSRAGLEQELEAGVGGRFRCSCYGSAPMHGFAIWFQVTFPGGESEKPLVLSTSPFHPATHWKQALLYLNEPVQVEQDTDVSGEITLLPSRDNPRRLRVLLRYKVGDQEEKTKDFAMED

[7] = system: SW156; conditions: SW156, ccRCC, 6-day
Procedure: (§1) The growth of all cell lines was evaluated over time across a wide range of seeding densities to identify conditions that permitted proliferation throughout the entire 6-day assay. Cells were plated at the optimal seeding density and after overnight incubation, a 20-point 2-fold titration of compound was added and plates were incubated for 6 days. A replicate plate of cells was harvested at the time of compound addition to quantify the starting number of cells (T0). Values obtained after the 6 day treatment were expressed as a function of the T0 value and plotted against compound concentration. The T0 value was normalized to 100% and represents the number of cells at the time of compound addition. The data were fit with a 4 parameter equation to generate a concentration response curve and the growth IC50 (gIC50) was determined. The gIC50 is the midpoint of the ‘growth window’, the difference between the number of cells at the time of compound addition (To) and the number of cells after 6 days (DMSO control). The growth-death assay can be used to quantify the net population change, clearly defining cell death (cytotoxicity) as fewer cells compared to the number at the time of compound addition (T0).

[8] = system: Melanoma cell lines; conditions: 7 cell lines
Procedure: as §1

[9] = system: SK-MEL-2; conditions: SK-MEL-2, melanoma, 6-day
Procedure: as §1

[10] = system: HL-60; conditions: HL-60, AML subtype M3, 6-day
Procedure: as §1

[11] = system: SK-MEL-5; conditions: SK-MEL-5, melanoma, 6-day
Procedure: as §1

[12] = system: Colon cancer cell lines; conditions: percent of cell lines, 34 cell lines
Procedure: as §1

[13] = system: IGR-1; conditions: IGR-1, melanoma, 6-day
Procedure: as §1

[14] = system: AML cell lines; conditions: 10 cell lines
Procedure: as §1

[15] = system: COLO741; conditions: COLO741, melanoma, 6-day
Procedure: as §1

[16] = system: Bladder cancer cell lines; conditions: 18 cell lines
Procedure: as §1

[17] = system: KASUMI-; conditions: AML subtype M2, 6-day
Procedure: as §1

[18] = system: Lymphoma cell lines; conditions: 59 cell lines
Procedure: as §1

[19] = system: MOLM-16; conditions: MOLM-16, AML subtype M0, 6-day
Procedure: as §1

[20] = system: A375; conditions: A375, melanoma, 6-day
Procedure: as §1

[21] = system: 786-O; conditions: ccRCC, 6-day
Procedure: as §1

[22] = system: SHI-1; conditions: SHI-1, AML subtype M5, 6-day
Procedure: as §1

[23] = system: HT144; conditions: HT144, melanoma, 6-day
Procedure: as §1

[24] = 60 minute SAM:Enzyme:Compound A preincubation
[25] = 600 QD mg/kg oral, arm terminated at day 31

CCOCC1(COCC)CCC(c2n[nH]cc2CN(C)CCNC)CC1 [Compound A]
time to maximal decrease of 45 kDa ADMA band [1]: 72 to 96 h | time to near maximal increase in MMA [1]: ≤ 48 h | change in ADMA methylation ([1]; up to 120 hours): decreased | change in MMA ([1]; up to 120 hours): increased | change in SDMA ([1]; up to 120 hours): increase | inhibition of activity [2, 24]: inhibited the activity | time dependence of inhibition ([2]; increasing preincubation times): time dependent inhibitor | inhibition of activity [3, 24]: inhibited the activity | time dependence of inhibition ([3]; increasing preincubation times): no time dependent behavior | Body weight Difference (vs. vehicle) ([4]; 150 QD mg/kg oral): −4% | Body weight Difference (vs. vehicle) ([4]; 300 QD mg/kg oral): −3% | Regression ([4]; 300 QD mg/kg oral): 37% | Body weight Difference (vs. vehicle) ([4]; 450 QD mg/kg oral): −8% | Regression ([4]; 450 QD mg/kg oral): 58% | Body weight Difference (vs. vehicle) ([4]; 600 QD mg/kg oral): −7% | Regression ([4]; 600 QD mg/kg oral): 62% | doses at which regressions were observed ([4]; Toledo xenograft, oral daily, 28 days): ≥ 300 mg/kg | body weight loss ([4]; any dose group, 150-600 mg/kg daily): no significant body weight loss | body weight loss ([5]; 600 mg/kg daily): Significant body weight loss | Body weight Difference (vs. vehicle) ([5]; 150 QD mg/kg oral, Day 59): −3% | Body weight Difference (vs. vehicle) ([5]; 300 QD mg/kg oral, Day 59): −4% | Regression ([5]; 300 QD mg/kg oral, Day 59): 2% | Body weight Difference (vs. vehicle) ([5]; 450 QD mg/kg oral, Day 59): −7% | Regression ([5]; 450 QD mg/kg oral, Day 59): 15% | Body weight Difference (vs. vehicle) [5, 25]: −17% | Regression [5, 25]: 6% | doses at which regressions were observed ([5]; ACHN xenograft, oral daily): ≥ 300 mg/kg | inhibition of activity [6, 24]: inhibited the activity | time dependence of inhibition ([6]; increasing preincubation times): time dependent inhibitor | Ymin − T0 [7]: 346.7 | Median gIC100 ([8]; 6-day proliferation): 29.33 µM | % Cytotoxic ([8]; percent of cell lines): 0% | % gIC100 < 2 ([8]; percent of cell lines): 0% | Ymin − T0 [9]: 35.9 | gIC100 [9]: 22.37 µM | gIC100 [10]: 6.38 ± 12.83 µM | Ymin − T0 ([10]; negative = cell death): −33.4 | Ymin − T0 [11]: 31.8 | gIC100 [11]: 27.09 ± 3.92 µM | % Cytotoxic [12]: 3% | % gIC100 < 2 [12]: 0% | Ymin − T0 [13]: 507.0 | gIC100 [13]: 29.33 ± 0.00 µM | number of cell lines with induced cytotoxicity ([14]; 6-day proliferation assay): 5 | % Cytotoxic ([14]; percent of cell lines): 50% | % gIC100 < 2 ([14]; percent of cell lines): 0% | Ymin − T0 [15]: 12.5 | gIC100 [15]: 28.55 ± 1.40 µM | Median gIC100 ([16]; 6-day proliferation): 29.33 µM | % Cytotoxic ([16]; percent of cell lines): 0% | % gIC100 < 2 ([16]; percent of cell lines): 0% | gIC100 [17]: 18.88 ± 10.55 µM | Ymin − T0 ([17]; negative = cell death): −17.7 | Median gIC100 ([18]; 6-day proliferation): 21.62 µM | % Cytotoxic ([18]; percent of cell lines): 54% | % gIC100 < 2 ([18]; percent of cell lines): 14% | gIC100 [19]: 9.69 ± 10.58 µM | Ymin − T0 ([19]; negative = cell death): −68.6 | Ymin − T0 [20]: 91.9 | gIC100 [20]: 29.33 ± 0.00 µM | Ymin − T0 [21]: 643.7 | gIC100 [22]: 29.33 ± 0.02 µM | Ymin − T0 ([22]; negative = cell death): 292.0 | Ymin − T0 [23]: 124.9 | gIC100 [23]: 29.33 ± 0.00 µM
